Measured values from the supplement of paper PMC10307832.

Tests used:
Experiment in all cases: relative viability (nuclei count vs DMSO), 5 days (fraction); higher = more cells survive
[1] = compound: N#CC1(c2ccc(NC(=O)c3cccnc3NCc3ccncc3)cc2)CCCC1 [Apatinib] + CC(C)C[C@H](NC(=O)[C@H](Cc1ccccc1)NC(=O)c1cnccn1)B(O)O [Bortezomib] (partner 0.002 µM)
How it was run: (§1)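 One day after seeding in 1536-well plates, lung cancer cell lines were dosed by pin tool. Dosing was either single-drug or a fixed anchor-drug dose plus five library-drug doses (not always all listed) in √10 steps. After 5 days, nuclei were stained in one fix-and-stain step and counted on 4× images, and relative viability is the nuclei count of treated wells over that of vehicle wells, given as the median of duplicate plates.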

[2] = compound: CN(C)C(=N)NC(=N)N [Metformin] + Cc1cc(Nc2cc(N3CCN(C)CC3)nc(Sc3ccc(NC(=O)C4CC4)cc3)n2)n[nH]1 [Tozasertib] (partner 0.1 µM)
How it was run: as §1

[3] = compound: N#CC1(c2ccc(NC(=O)c3cccnc3NCc3ccncc3)cc2)CCCC1 [Apatinib] + COc1cc2c(Oc3ccc(NC(=O)C4(C(=O)Nc5ccc(F)cc5)CC4)cc3F)ccnc2cc1OCCCN1CCOCC1 [Foretinib] (partner 0.25 µM)
How it was run: as §1

[4] = compound: N#CC1(c2ccc(NC(=O)c3cccnc3NCc3ccncc3)cc2)CCCC1 [Apatinib] + C[C@]1(O)C[C@@H](c2nc(-c3ccc4ccc(-c5ccccc5)nc4c3)c3c(N)nccn32)C1 [Linsitinib] (partner 1 µM)
How it was run: as §1

Cell Line	relative viability ([1]; first compound 0.08 µM)	relative viability ([1]; first compound 0.253 µM)	relative viability ([1]; first compound 0.8 µM)	relative viability ([1]; first compound 2.53 µM)	relative viability ([1]; first compound 8 µM)	relative viability ([2]; first compound 10 µM)	relative viability ([2]; first compound 31.62 µM)	relative viability ([2]; first compound 100 µM)	relative viability ([2]; first compound 316.23 µM)	relative viability ([2]; first compound 1000 µM)	relative viability ([3]; first compound 0.08 µM)	relative viability ([3]; first compound 0.253 µM)	relative viability ([3]; first compound 0.8 µM)	relative viability ([3]; first compound 2.53 µM)	relative viability ([3]; first compound 8 µM)	relative viability ([4]; first compound 0.08 µM)	relative viability ([4]; first compound 0.253 µM)	relative viability ([4]; first compound 0.8 µM)	relative viability ([4]; first compound 2.53 µM)	relative viability ([4]; first compound 8 µM)
LCLC-97TM1	0.774	0.775	0.508	0.344	0.574	0.18	0.212	0.212	0.241	0.231	0.907	0.882	0.944	0.959	0.584	0.224	0.169	0.173	0.164	0.142
LCLC-103H	1.16	1.03	0.998	0.992	1.09	0.557	0.627	0.568	0.556	0.592	0.785	0.957	0.681	0.805	0.573	1.1	1.05	1.06	1.09	0.993
LOU-NH91	0.466	0.492	0.543	0.443	0.476	0.595	0.633	0.703	0.633	0.65	0.979	0.891	0.836	0.891	0.829	0.94	0.916	0.717	0.845	0.777
LU99A	1.21	1.22	1.2	0.943	0.976	0.234	0.246	0.253	0.235	0.236	0.88	0.891	0.769	0.78	0.682	0.589	0.549	0.515	0.457	0.47
LXF-289	1.02	0.983	0.984	0.936	0.96	0.191	0.179	0.206	0.174	0.19	0.915	1.02	0.984	0.954	0.905	0.974	0.964	0.96	0.941	0.896
NCI-H23	0.91	1.01	0.908	0.902	0.805	0.382	0.49	0.433	0.445	0.498	1	1.21	1.05	1	1.1	0.694	0.652	0.501	0.568	0.542
NCI-H322M	1.23	1.19	1.05	1.24	1.25	0.48	0.454	0.437	0.432	0.419	1.02	0.857	0.944	0.984	0.88	1.13	0.878	0.978	0.974	0.842
NCI-H441	0.615	0.481	0.592	0.322	0.217		0.448	0.511	0.438	0.587	0.872	1.14	0.79	0.904	0.732	0.596	0.61	0.628	0.422	0.303
NCI-H460	1.11	1.03	0.888	0.98	1.01		0.59	0.645	0.187	0.734	0.941	0.943	0.942	1.04	0.897	0.841	0.863	0.661	0.737	0.64
NCI-H520	0.83	0.492	0.451	0.585	0.447	0.462	0.496	0.463	0.498	0.469	0.865	0.72	0.844	0.558	0.651	1.12	0.948	0.842	0.876	0.878
NCI-H596	1.2	1	1.17	0.929	1.04	0.955	0.93	1.1	0.985	0.938	0.771	0.888	0.624	0.99	0.853	1.23	1.05	1.02	0.994	0.795
NCI-H647	1.27	1.33	1.01	0.736	0.823	0.244	0.293	0.349	0.456	0.307	1.14	1.39	1.16	1.13	0.977	1.32	1.18	1.01	1.04	1.02
NCI-H650	0.888	0.835	0.834	0.543	0.754	0.831	0.8	0.973	0.48	0.919	1.05	1.05	1.02	0.871	0.806	0.787	0.871	0.756	0.734	0.663
NCI-H661	0.935	0.855	0.685	0.764	0.584	0.344	0.373	0.377	0.362	0.366	1	0.93	1.04	1.02	0.941	0.526	0.578	0.648	0.596	0.52
NCI-H727	0.684	0.706	0.62	0.599	0.716	0.564	0.821	0.606	0.501	0.637	1.02	0.676	0.937	0.835	0.912	0.33	0.33	0.415	0.348	0.36
NCI-H838	0.931	0.963	0.57	0.887	0.712	0.28	0.296	0.349	0.312	0.258	1.14	1.18	0.997	0.946	0.986	1.14	1.18	0.962	0.985	1.04
NCI-H1355	1.2	1.16	1.16	1.14	1.08	0.613	0.654	0.684	0.504	0.757	0.961	0.9	1.07	0.9	0.786	0.97	0.863	0.802	0.685	0.666
NCI-H1437	0.52	0.526	0.461	0.434	0.439	0.403	0.44	0.405	0.411	0.418	1.28	1.26	1.24	1.03	1.02	1.03	1.06	0.879	0.653	0.475
NCI-H1651	0.799	0.955	0.922	0.912	0.861	0.751	0.847	0.86	0.728	0.976	0.925	0.897	0.765	0.577	0.495	1.13	1.13	0.895	0.91	0.784
NCI-H1666	0.829	1.02	0.824	0.785	0.825	0.625	0.649	0.703	0.711	0.725	0.953	0.998	0.942	0.943	1.03	0.861	0.99	0.92	0.917	0.724
NCI-H1734	0.98	1.11	0.947	0.764	0.759	0.246	0.242	0.267	0.268	0.29	0.932	0.833	0.839	0.732	0.676	0.969	1.04	0.897	0.738	0.809
NCI-H1755	1.02	0.959	0.94	0.945	0.925	0.446	0.519	0.474	0.509	0.497	0.984	0.954	0.912	0.91	0.806	0.976	0.97	0.964	0.977	0.709
NCI-H1915	0.953	0.984	0.956	0.812	0.924		0.452	0.466	0.416	0.489	1.18	1.08	1.03	0.943	0.836	1.15	1.02	1.08	1.06	0.921
NCI-H1975	0.466	0.417	0.314	0.323	0.388	0.888	0.905	0.872	0.78	1.08	1.13	0.907	0.84	0.862	0.783	0.988	0.954	0.931	0.854	0.888
NCI-H1993	1.2	1.11	0.781	1	1.07	0.622	0.551	0.609	0.571	0.596	0.85	0.766	0.808	0.702	0.687	0.751	0.648	0.742	0.715	0.775
NCI-H2009	1.09	0.955	0.954	0.714	0.574	0.761	0.856	0.802	0.759	0.783	1.39	1.18	1.17	1.07	0.853	1.26	1.16	1.17	1.08	0.799
